Assay results published in patent publication EP3168211A1, “PHARMACEUTICAL CO-CRYSTALS OF NICLOSAMIDE” (Westfälische Wilhelms-Universität Münster, priority 2015, dated 2017).
≈ marks a conversion by molar mass, not a printed value.

What was measured:
[1] = for increase of the equilibrium solubility: result in words, versus pristine NCL; for factor: equilibrium solubility relative to pristine NCL; for factor / Solubility at 37° C (24 h) in 40% isopropanol-water mixture: 37°C, 24 h, 40% isopropanol-water; for Solubility at 37° C (24 h) in 40% isopropanol-water mixture: equilibrium solubility, shake-flask, sample normalized to 50 mg of NCL in 2.5 mL
[2] = male Sprague-Dawley rats; cited from earlier work
physchem = conditions: 37 °C, aqueous with cosolvent or surfactant or cyclodextrin, thermodynamic from solid
[3] = solubility factor relative to NCL reported by P. Sanphui et al.; weights not normalized to the amount of NCL; cited from earlier work

| Molecule | increase of the equilibrium solubility [1] | factor [1] | Solubility at 37° C (24 h) in 40% isopropanol-water mixture [1] [µg/mL] | oral bioavailability [2] [%] | solubility at 24 h (physchem) [µg/mL] | factor* [3] |
| --- | --- | --- | --- | --- | --- | --- |
| Niclosamide - isoniazide [NCL-IN] | moderate increase | – | – | – | – | – |
| Niclosamide - acetamide [NCL-AA-I] | moderate increase | 1.4 | – | – | – | – |
| O=C(Nc1ccc([N+](=O)[O-])cc1Cl)c1cc(Cl)ccc1O [NCL, 2',5-dichloro-4'-nitrosalicylanilide] | – | – | – | 10 | 87.2 (≈ 266 µM) | – |

Further lines, with some results ahead:

| increase of the equilibrium solubility [1] | factor [1] | Solubility at 37° C (24 h) in 40% isopropanol-water mixture [1] [µg/mL] | Molecule | oral bioavailability [2] [%] | solubility at 24 h (physchem) [µg/mL] | factor* [3] |
| --- | --- | --- | --- | --- | --- | --- |
| – | 1.3 | 114.45 | Niclosamide - nicotinamide [NCL-NA] | – | – | 1.2 |
| – | 1.3 | 113.45 | Niclosamide - isonicotinamide [NCL-IA] | – | – | 1.7 |
